Data as given in patent publication US9926529B2, “Derivation of neural stem cells and dopaminergic neurons from human pluripotent stem cells” (International Stem Cell Corporation, priority 2012, dated 2018).
Counter-ions that a name gives are not always drawn. Like-named read-outs stand apart in the source and are kept apart here.

Columns and labels:
hPSC-NSCs [1] = assay: RT-PCR expression of dopamine neuron genes in hPSC-NSCs treated with small molecule hits; type: cell-based, human; conditions: for fold induction at 2.5 µM: Homo sapiens, Neuron, 336 h
Method: (§1) The method specifically involved treating both hESC-H9-NSCs (Invitrogen) and hPSC-NSCs with Purmorphamine (2 μM) and FGF8 (100 ng/mL) in NB medium [NeuroBasal medium, 1× GlutaMAX, 1× N2/B27 Supplement (Invitrogen)] for 7 days. After 7 days of Purmorphamine and FGF8 treatment, the NSCs were dissociated with Accutase (Sigma) and plated 20,000 cells/mL into Matrigel coated 96 well plates and treated with small molecule library (Torcris 1120 Biologically Active Compounds) at 2.5 μM final concentration for two weeks (FIG. 6A). Two weeks after treatment with small molecules, all wells were visually observed and scored based on neurite density and dopamine release. For measuring neurite density, cells were fixed with 4% paraformaldehyde and phase contrast images were acquired using Cellavista Cell Imaging System (Roche Applied Science) from randomly selected fields. Neurite density was measured using the Cellavista density software image processing program. Each experimental condition was done in duplicate wells, and at least three independent experiments were conducted to acquire the final results.
(§2) Conditioned medium from the top neurite inducers (Table 1) (wells containing the highest density of neurites compare to control 0.1% DMSO treated) were collected and analyzed using a dopamine ELISA assay (Cosmo Bio). Conditioned medium was collected from samples containing 50,000 cells per well and centrifuged at 3000 RPM to remove cell debris. Supernatant was then collected and analyzed for quantitative determination of dopamine using a commercial dopamine ELISA assay kit (CusaCosmo Bio). Data analysis was performed using the microtiter plate reader (BIO-TEK Synergy 2). The results presented are from three independent experiments (n=3) and represented as mean±standard error of mean (s.e.m.) and statistical analysis was performed using the two-tailed Student's t-test with a confidence level of 95% (α=0.05) with statistical significance of P<0.05. Additionally, total RNA from each well were collected and analyze by RT-PCR for expression of TuJ1, MAP2, TH, GRK2, EN1, DAT, AADC, PAX2, NURR1, PITX3 and LMX1B from hPSC-NSCs (Table 2). […] Analysis of the ELISA data indicated the top small molecule neurite inducers produced higher levels of dopamine than control non-treated cells (1.5 ng/mL). […] The percentages of TH positive cells produced by chemical treatment with Kenpaullone (33%), Guggulsterone (35%), Kynurenic Acid (19%), Immedthridine Dihydrobromide (21%), and Dimaprit Dihydrochloride (18%) were higher than 15% of TH positive cells obtained from hPSC-NSCs differentiated for ≥1 month using a standard dopaminergic differentiation medium (BDNF 20 ng/mL, GDNF 20 ng/mL, cAMP 200 μM, Abscorbic Acid 200 μM, TGFβ3 2 ng/mL and DAPT).
Total RNA from at least triplicate samples with around 1 million cells each was isolated using either QIAsymphony automatic purification system or RNeasy Plus Mini kit, according to manufacturer's instructions (Qiagen). Total RNA was used for reverse transcription with the iScript cDNA synthesis kit (Biorad) and Px2 Thermal Cycler (Thermo Scientific). To analyze gene expression, PCR reactions were performed in duplicate using 1/25-th of the cDNA per reaction and the QuantiTect Primer Assay and Quantitest SYBR Green master mix (Qiagen). qPCR was performed using the Rotor-Gene Q (Qiagen) 5 min at 95° C., 5 s at 92° C., and 20 s at 60° C. for 37 cycles followed by melt to check the specificity of the amplicons from 50 to 99° C. raising by 1° C. each step. Relative quantification was performed against a standard curve and quantified values were normalized against the input determined by PPIG. The primers used for the analysis are listed in Supplementary Table S1. […]

hPSC-NSCs [2] = assay: Percentage of TH positive cells produced by chemical treatment; type: cell-based, human; conditions: chemical treatment 2.5 μM for two weeks
Method: as §1, §2

[3] = hPSC-NSCs primed 7 days with Purmorphamine and FGF8, small molecule 2.5 μM for two weeks, read-out: DDC (AADC) expression by RT-PCR
[4] = hPSC-NSCs primed 7 days with Purmorphamine and FGF8, small molecule 2.5 μM for two weeks, read-out: EN1 expression by RT-PCR
[5] = hPSC-NSCs primed 7 days with Purmorphamine and FGF8, small molecule 2.5 μM for two weeks, read-out: KCNJ6 expression by RT-PCR
[6] = hPSC-NSCs primed 7 days with Purmorphamine and FGF8, small molecule 2.5 μM for two weeks, read-out: MAP2 expression by RT-PCR
[7] = hPSC-NSCs primed 7 days with Purmorphamine and FGF8, small molecule 2.5 μM for two weeks, read-out: NR4A2 (NURR1) expression by RT-PCR
[8] = hPSC-NSCs primed 7 days with Purmorphamine and FGF8, small molecule 2.5 μM for two weeks, read-out: PITX3 expression by RT-PCR
[9] = hPSC-NSCs primed 7 days with Purmorphamine and FGF8, small molecule 2.5 μM for two weeks, read-out: TH1 expression by RT-PCR
[10] = hPSC-NSCs primed 7 days with Purmorphamine and FGF8, small molecule 2.5 μM for two weeks, read-out: Tubb3 expression by RT-PCR
[11] = read-out: SLC6A3 (DAT) expression by RT-PCR
[12] = hPSC-NSCs primed 7 days with Purmorphamine and FGF8, small molecule 2.5 μM for two weeks, read-out: LMX1B expression by RT-PCR
[13] = hPSC-NSCs primed 7 days with Purmorphamine and FGF8, small molecule 2.5 μM for two weeks, read-out: Pax2 expression by RT-PCR
[14] = hPSC-NSCs primed 7 days with Purmorphamine and FGF8, small molecule 2.5 μM for two weeks, read-out: SLC6A3 (DAT) expression by RT-PCR
[15] = hPSC-NSCs primed 7 days with Purmorphamine and FGF8, small molecule 2.5 μM for two weeks

Compound	fold induction at 2.5 µM (hPSC-NSCs [1]; [3])	fold induction at 2.5 µM (hPSC-NSCs [1]; [4])	fold induction at 2.5 µM (hPSC-NSCs [1]; [5])	fold induction at 2.5 µM (hPSC-NSCs [1]; [6])	fold induction at 2.5 µM (hPSC-NSCs [1]; [7])	fold induction at 2.5 µM (hPSC-NSCs [1]; [8])	fold induction at 2.5 µM (hPSC-NSCs [1]; [9])	fold induction at 2.5 µM (hPSC-NSCs [1]; [10])	fold induction at 2.5 µM (hPSC-NSCs [1]; [12])	fold induction at 2.5 µM (hPSC-NSCs [1]; [13])	fold induction at 2.5 µM (hPSC-NSCs [1]; [14])	further results
CN(C)CCCSC(=N)N [Dimaprit dihydrochloride]	31.9	15.5	0.16	12.4	1.87	0.45	9.02	9.62	–	–	–	percentage of TH positive cells (hPSC-NSCs [2]): 18%
c1cc(Cc2cnc[nH]2)ccn1 [Immethridine dihydrobromide]	28.2	11.8	0.22	12.7	0.52	–	9.72	10.6	7.66	41.2	–	fold induction at 2.5 µM (hPSC-NSCs [1]; [11]): 33.6; percentage of TH positive cells (hPSC-NSCs [2]): 21%
O=C1Cc2c([nH]c3ccc(Br)cc23)-c2ccccc2N1 [Kenpaullone]	11.1	11	0.12	8.17	0.05	–	2.15	9.61	–	–	–	fold induction at 2.5 µM (hPSC-NSCs [1]; [11]): 108; percentage of TH positive cells (hPSC-NSCs [2]): 33%
CC1(C)NC(=O)N(c2ccc([N+](=O)[O-])c(C(F)(F)F)c2)C1=O [Nilutamide]	172	5.33	2.1	10.6	1.43	0.27	10.1	3.81	2.55	0.9	2.07	–
CCN1CCC[C@H]1CNC(=O)c1c(OC)ccc(Br)c1OC [Remoxipride hydrochloride]	13.8	6.6	0.93	11.5	3.21	0.69	12	5.73	3.16	0.86	6.41	–
CC1=C(/C=C/C(C)=C/C=C/C(C)=C/C(=O)O)C(C)(C)CCC1 [Retinoic acid]	110	12.8	2.8	7.7	153	0.04	1.99	7.05	1.25	0.5	1.99	–
CCOC(=O)c1ncn2c1CN(C)C(=O)c1cc(N=[N+]=[N-])ccc1-2 [Ro 15-4513]	–	–	–	–	–	–	–	–	–	–	–	DDC (AADC) expression by RT-PCR (hPSC-NSCs [1]; [15]): 12.88; EN1 expression by RT-PCR (hPSC-NSCs [1]; [15]): 5.9; KCNJ6 (GRK2) expression by RT-PCR (hPSC-NSCs [1]; [15]): 0.09; MAP2 expression by RT-PCR (hPSC-NSCs [1]; [15]): 7.19; NR4A2 (NURR1) expression by RT-PCR (hPSC-NSCs [1]; [15]): 0.9; PITX3 expression by RT-PCR (hPSC-NSCs [1]; [15]): 0.72; SLC6A3 (DAT) expression by RT-PCR (hPSC-NSCs [1]; [15]): 0.46; TH1 expression by RT-PCR (hPSC-NSCs [1]; [15]): 8.49; Tubb3 expression by RT-PCR (hPSC-NSCs [1]; [15]): 4.9
FC(F)(F)c1cccc(-c2noc(-c3cc(-c4ccccc4)c(C(F)(F)F)s3)n2)c1 [SEW 2871]	68.3	8.08	0.88	12.3	2.36	–	7.6	5.17	3.65	1.59	32.1	–
O=C(CCCN1CCC2(CC1)C(=O)NCN2c1ccccc1)c1ccc(F)cc1 [Spiperone hydrochloride]	13.1	7.4	0.24	9.66	0.58	0.18	11.1	3.57	–	–	1.25	–
C/C(=C\c1ccc(C(=O)O)cc1)c1ccc2c(c1)C(C)(C)CCC2(C)C [TTNPB]	–	–	–	–	–	–	–	–	–	–	–	DDC (AADC) expression by RT-PCR (hPSC-NSCs [1]; [15]): 21.95; EN1 expression by RT-PCR (hPSC-NSCs [1]; [15]): 9.42; KCNJ6 (GRK2) expression by RT-PCR (hPSC-NSCs [1]; [15]): 0.69; LMX1B expression by RT-PCR (hPSC-NSCs [1]; [15]): 1.45; MAP2 expression by RT-PCR (hPSC-NSCs [1]; [15]): 6.36; NR4A2 (NURR1) expression by RT-PCR (hPSC-NSCs [1]; [15]): 14.8; Pax2 expression by RT-PCR (hPSC-NSCs [1]; [15]): 0.09; SLC6A3 (DAT) expression by RT-PCR (hPSC-NSCs [1]; [15]): 0.5; TH1 expression by RT-PCR (hPSC-NSCs [1]; [15]): 5.5; Tubb3 expression by RT-PCR (hPSC-NSCs [1]; [15]): 4.64
S=C(NC1CCCCC1)N1CCC(c2cnc[nH]2)CC1 [Thioperamide]	95.6	7.72	2.21	13.2	3.43	0.28	8.38	5.6	3.81	1.15	–	fold induction at 2.5 µM (hPSC-NSCs [1]; [11]): 25.5
Cl.N=C(N)NC(=N)Nc1cccc(Cl)c1 [m-Chlorophenylbiguanide hydrochloride]	–	–	–	–	–	–	–	–	–	–	–	DDC (AADC) expression by RT-PCR (hPSC-NSCs [1]; [15]): 69.41; EN1 expression by RT-PCR (hPSC-NSCs [1]; [15]): 7.96; KCNJ6 (GRK2) expression by RT-PCR (hPSC-NSCs [1]; [15]): 1.65; LMX1B expression by RT-PCR (hPSC-NSCs [1]; [15]): 3.73; MAP2 expression by RT-PCR (hPSC-NSCs [1]; [15]): 9.6; NR4A2 (NURR1) expression by RT-PCR (hPSC-NSCs [1]; [15]): 5.51; Pax2 expression by RT-PCR (hPSC-NSCs [1]; [15]): 0.28; SLC6A3 (DAT) expression by RT-PCR (hPSC-NSCs [1]; [15]): 1.53; TH1 expression by RT-PCR (hPSC-NSCs [1]; [15]): 6.67; Tubb3 expression by RT-PCR (hPSC-NSCs [1]; [15]): 4.97
O=C(O)/C=C/CO [trans-4-Hydroxycrotonic acid]	69.7	12.7	0.22	12.4	4.49	–	13.2	10.8	–	–	–	fold induction at 2.5 µM (hPSC-NSCs [1]; [11]): 6.11
AM580	–	–	–	–	–	–	–	–	–	–	–	DDC (AADC) expression by RT-PCR (hPSC-NSCs [1]; [15]): 81.43; EN1 expression by RT-PCR (hPSC-NSCs [1]; [15]): 12.94; KCNJ6 (GRK2) expression by RT-PCR (hPSC-NSCs [1]; [15]): 2.73; LMX1B expression by RT-PCR (hPSC-NSCs [1]; [15]): 2.16; MAP2 expression by RT-PCR (hPSC-NSCs [1]; [15]): 8.55; NR4A2 (NURR1) expression by RT-PCR (hPSC-NSCs [1]; [15]): 7.11; Pax2 expression by RT-PCR (hPSC-NSCs [1]; [15]): 0.1; SLC6A3 (DAT) expression by RT-PCR (hPSC-NSCs [1]; [15]): 0.66; TH1 expression by RT-PCR (hPSC-NSCs [1]; [15]): 5.28; Tubb3 expression by RT-PCR (hPSC-NSCs [1]; [15]): 4.58
